From patent US20220370484A1, “NOVEL USE OF NICOTINAMIDE MONONUCLEOTIDE (NMN) AND NICOTINAMIDE RIBOSIDE (NR)” (Senju Pharmaceutical Co., Ltd., priority 2019, published 2022)

How the values were obtained:
Assay type in all cases: in vivo, mouse
[1] = system: meibomian gland basal cells; experiment: Cell proliferation assay through BrdU incorporation staining after eye drop instillation; settings: 1.5 year old WT mice, 5% eye drop (5 μL/eye, 6 times/day, only right eye), 2 weeks, vs Vehicle (phosphate buffered saline)
Method: [table] BrdU (100 mg/kg body weight, Sigma-Aldrich) was intraperitoneally injected 30 minutes prior to harvesting eyelid tissue from a mouse. An eyelid comprising meibomian glands was immobilized with 4% PFA and embedded in paraffin. Antigens were activated by pressurizing a 5 μm thick segment for 2.5 minutes in 10 mM sodium citrate buffer (pH 6.0). After incubating the segment for 24 hours at 4° C. by using an anti-BrdU antibody (1:1000 dilution; Rockland Inc.), the immune response was made visible with 3,3′-diaminobenzidine (DAB) using secondary antibody Envision+ System—HRP Labelled Polymer Anti-Rabbit (Dako). For each tissue segment, BrdU positive cells in the basal cell layer of a meibomian gland were counted on a digital microscope picture captured at 20× magnification. The length of the outer circumference of a meibomian gland acinus was measured with ImageJ software, and the total BrdU positive cell count was normalized with the length of the outer circumference. The BrdU positive cells were counted by using 16 segments per individual.

[2] = system: meibomian gland tissue; experiment: Lipid stained tissue observation (meibomian gland volume evaluation), whole mount Herxheimer's staining; settings: 1.75 year old WT mice, 5% eye drop (5 μL/eye, 4 times/day, only right eye), 3 months, vs Vehicle (phosphate buffered saline)
Method: Meibomian gland tissue in mice was stained in accordance with the following protocol.
As a preparation method of 100 mL of staining solution, a bottle of stock solution prepared by dissolving Sudan IV to saturate in 100% ethanol was left standing in advance, and 70 mL of as much of the supernatant, 20 mL of 10% NaOH, and 10 mL of ultrapure water were mixed, tumbled for 5 minutes, and centrifuged to allow powder to precipitate. The supernatant was filtered with a 0.45 μm filter and used as a staining solution.
The cervical vertebrae of mice was dislocated, and skin of the head including meibomian glands was sampled. The sample was immersed in 4% paraformaldehyde while keeping the sample flat with a drawing pin, and immobilized using a rotator at 4° C. for 24 hours. The periphery of meibomian glands was trimmed. The meibomian glands were immersed in 50% ethanol by using a rotator at room temperature for 10 minutes, then immersed for 20 minutes in 70% ethanol, and immersed in a staining solution using a rotator at room temperature for 24 hours in a falcon tube. The meibomian glands were then immersed for 10 minutes in 70% ethanol, and washing was repeated several times to confirm that the meibomian glands were stained well. The meibomian glands were immersed for 24 hours in amino alcohol in glycerin prepared by mixing 3.75 mL of 80% amino alcohol with 8.25 mL glycerin. […]

[3] = system: lipid components in meibomian glands; experiment: Lipid analysis of meibomian glands after eye drop instillation (APCI); settings: 1.75 year old WT mice, eye drop instillation 3 months as Example 3, compared to Vehicle (phosphate buffered saline)
Method: (1) The Eye Drop Instillation Experiment is Performed in the Same Manner as Example 3. Meibomian glands are harvested from an eyelid of a euthanized mouse. Two meibomian glands harvested from one of the eyes of each animal are each placed in a glass vial containing 1 mL of chloroform:methanol=2:1 (v/v) solvent mixture for lipid extraction, and lipids are extracted. The extract is relocated into a new vial. The extract can be stored for several months at −20° C. or lower by evaporating the solution under nitrogen. The extract is then dissolved in a suitable solvent, and lipid composition is analyzed by APCI.

[4] = system: Hsd3b6; experiment: Measurement of meibomian gland Hsd3b6 enzymatic activity (steroid synthesis activity) after eye drop instillation; settings: 1.5 year old WT mice, 5% eye drop (5 μL/eye, 6 times/day, only right eye), 2 weeks, vs Vehicle (phosphate buffered saline)
Method: The meibomian gland Hsd3b6 enzymatic activity in mice was measured in accordance with the following protocol.
Hank's balanced salt solution (HBSS) was bubbled with […] for 1 hour or more, and dispensed in 2 mL tubes at 200 μL each. The lid was closed while filled with […]. HBSS was warmed with a 37° C. water bath. A reaction incubator was warmed to 37° C., and a micro tube mixer was installed therein.
The main power of a flow liquid scintillation counter (Perkin Elmer, Radiomatic 625TR) was turned on, and the main power of HPLC (Waters, 2795 Separations Module) was turned on to perform setup. Mobile phase A was replaced with water, and mobile phase B was replaced with acetonitrile. Once a column (Kanto Chemical, LiChroCART 250-4, LiChrosphere 100RP-18, particle size: 5 μm, 4 mm I.D.×250 mm) was installed, 40% acetonitrile (ACN) (A: 60%, B: 40%) was flown at 0.7 mL/min. The column oven temperature at this time was set to 40° C.
^3H-DHEA was added to 1 mL of 40% ACN contained in a 2 mL tube, and the mixture was tapped. A microtube was set on an HPLC holder, and single administration was selected. The peak of contaminant produced after 22 minutes was not collected. […]

Compound | BrdU positive cell count in meibomian gland basal cells [1] | meibomian gland volume [2] | Lipid components in a meibomian gland [3] | Hsd3b6 enzymatic activity in a meibomian gland [4]
NC(=O)c1ccc[n+]([C@@H]2O[C@H](CO)[C@@H](O)[C@H]2O)c1 [NR, Nicotinamide riboside] | increased significantly | significant increase | normalized | –
Nicotinamide mononucleotide [NMN] | increased significantly | significant increase | normalized | increased significantly
